# Molecular target: T1, Recombinant human BACE-1 (Homo sapiens, UniProt P56817)
# T1 construct: purchased R&D Systems
# Assay: Assay of β-secretase-inhibiting activity;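 also: substrate is a peptide carrying biotin and europium cryptate, after the enzyme reaction, Streptavidin-XL665 is added and incubated 1 h at 30 °C before fluorescence reading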
# Type: biochemical
# Settings: Recombinant human BACE-1 7.4 nM, substrate peptide 18 nM, pH 5.0, 30° C., 3 hours; Table 139; read-out: IC50
# T1 sequence (P56817 46-501): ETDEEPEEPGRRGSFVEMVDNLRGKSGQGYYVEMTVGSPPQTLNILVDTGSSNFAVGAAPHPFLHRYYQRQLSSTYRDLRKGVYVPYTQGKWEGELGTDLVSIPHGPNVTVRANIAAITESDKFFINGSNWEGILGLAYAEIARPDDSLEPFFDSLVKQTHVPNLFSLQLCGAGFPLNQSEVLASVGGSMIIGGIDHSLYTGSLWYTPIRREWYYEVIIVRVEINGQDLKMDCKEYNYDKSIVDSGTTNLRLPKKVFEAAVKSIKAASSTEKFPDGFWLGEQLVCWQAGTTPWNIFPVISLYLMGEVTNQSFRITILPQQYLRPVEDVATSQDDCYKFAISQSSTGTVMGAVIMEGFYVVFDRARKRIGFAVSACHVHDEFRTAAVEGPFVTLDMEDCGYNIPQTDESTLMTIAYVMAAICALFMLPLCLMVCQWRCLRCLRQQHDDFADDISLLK
row,IC50 [nM],Structure (SMILES)
1,100,C=C(C)COc1cnc(C(=O)Nc2cccc([C@]3(C)CCSC(N)=N3)c2)cn1 [Compound 109]
2,180,C[C@@]1(c2cccc(NC(=O)c3ccc(OCc4ccc(F)cc4)cn3)c2)CCSC(N)=N1 [Compound 111]
3,160,C[C@@]1(c2cc(NC(=O)c3ccc(OCCO)cn3)ccc2F)CCSC(N)=N1 [Compound 114]
4,2140,COc1nc(Nc2ccc(F)c([C@]3(C)CCSC(N)=N3)c2)nc(OC)n1 [Compound 126]
5,110,C[C@@]1(c2cc(NC(=O)c3cnc(-c4ccco4)cn3)ccc2F)CCSC(N)=N1 [Compound 136]
6,120,Cc1ccc(NC(=O)c2cnc(Cl)cn2)cc1C1(C)CCSC(N)=N1 (stereo not drawn) [Compound 141]
7,9250,C[C@@]1(c2cc(NC(=O)COc3ccccc3O)ccc2F)CCSC(N)=N1 [Compound 149]
8,2480,C[C@@]1(c2cc(NC(=O)CCc3cccc(N)c3)ccc2F)CCSC(N)=N1 [Compound 150]
9,6770,Cc1cc(SCC(=O)Nc2ccc(F)c([C@]3(C)CCSC(N)=N3)c2)nc(N)n1 [Compound 151]

# Same assay, conditions: Recombinant human BACE-1 7.4 nM, substrate peptide 18 nM, pH 5.0, 30° C., 3 hours; time-resolved fluorescence ratio 665/620; read-out: IC50 values (50% inhibitory concentration against the enzymatic activity)
row,Structure (SMILES),IC50 [nM]
1,C[C@@]1(c2cccc(NC(=O)c3ccc(O)cn3)c2)CCSC(N)=N1 [Compound 110],≤ 1000
2,C[C@@]1(c2cc(NC(=O)c3ccc(OCc4ccco4)cn3)ccc2F)CCSC(N)=N1 [Compound 112],≤ 1000
3,CCCCCc1cnc(C(=O)Nc2ccc(F)c([C@]3(C)CCSC(N)=N3)c2)cn1 [Compound 115],≤ 1000
4,COCC#Cc1cnc(C(=O)Nc2ccc(F)c([C@]3(C)CCSC(N)=N3)c2)cn1 [Compound 116],≤ 1000
5,COCCCc1cnc(C(=O)Nc2ccc(F)c([C@]3(C)CCSC(N)=N3)c2)cn1 [Compound 118],≤ 1000
6,C[C@@]1(c2cc(NC(=O)c3ccc(O)cn3)ccc2F)CCSC(N)=N1 [Compound 119],≤ 1000
7,CCC/C=C/c1cnc(C(=O)Nc2ccc(F)c([C@]3(C)CCSC(N)=N3)c2)cn1 [Compound 124],≤ 1000
8,CC(C)=NOc1cnc(C(=O)Nc2ccc(F)c([C@]3(C)CCSC(N)=N3)c2)cn1 [Compound 125],≤ 1000
9,C#CCOc1cnc(C(=O)Nc2ccc(F)c([C@]3(C)CCSC(N)=N3)c2)cn1 [Compound 133],≤ 1000
10,CCOc1cnc(C(=O)Nc2ccc(F)c([C@]3(C)CCSC(N)=N3)c2)cn1 [Compound 134],≤ 1000
11,C[C@@]1(c2cc(NC(=O)c3ccc(OC(F)F)cn3)ccc2F)CCSC(N)=N1 [Compound 135],≤ 1000
12,CC1(c2cc(NC(=O)c3cnc(Cl)cn3)cc(F)c2F)CCSC(N)=N1 (stereo not drawn) [Compound 144],≤ 1000
13,C[C@@]1(c2cncc(NC(=O)c3ccc(Cl)cn3)c2)CCSC(N)=N1 [Compound 152],≤ 1000

# The remaining lines, values ahead:
row,IC50 [nM],Structure (SMILES)
1,≤ 1000,CC/C=C\COc1cnc(C(=O)Nc2cccc([C@]3(C)CCSC(N)=N3)c2)cn1 [Compound 108]
2,≤ 1000,CC(C)=NOc1cnc(C(=O)Nc2cccc([C@]3(C)CCSC(N)=N3)c2)cn1 [Compound 113]
3,≤ 1000,COC/C=C\c1cnc(C(=O)Nc2ccc(F)c([C@]3(C)CCSC(N)=N3)c2)cn1 [Compound 117]
4,≤ 1000,CC#CCNc1cnc(C(=O)Nc2ccc(F)c([C@]3(C)CCSC(N)=N3)c2)cn1 [Compound 120]
5,≤ 1000,C[C@@]1(c2cc(NC(=O)c3cnc(OCC4CC4)cn3)ccc2F)CCSC(N)=N1 [Compound 121]
6,≤ 1000,CC#CCNc1cnc(C(=O)Nc2cccc([C@]3(C)CCSC(N)=N3)c2)cn1 [Compound 123]
7,≤ 1000,C[C@@]1(c2cc(NC(=O)c3cnc(OCC(F)F)cn3)ccc2F)CCSC(N)=N1 [Compound 131]
8,≤ 1000,C[C@@]1(c2cc(NC(=O)c3cnc(OCCF)cn3)ccc2F)CCSC(N)=N1 [Compound 132]
9,≤ 1000,CC#CCOc1cnc(C(=O)Nc2ccc(C)c(C3(C)CCSC(N)=N3)c2)cn1 (stereo not drawn) [Compound 142]
10,≤ 1000,Cc1cnc(C(=O)Nc2cc(F)c(F)c(C3(C)CCSC(N)=N3)c2)cn1 (stereo not drawn) [Compound 143]
11,≤ 1000,CC#CCOc1cnc(C(=O)Nc2cc(F)c(F)c(C3(C)CCSC(N)=N3)c2)cn1 (stereo not drawn) [Compound 145]
